From US11168093B2, “Thienopyridine inhibitors of RIPK2” (Celgene Corporation, priority 2018, dated 2021)

Target: RIPK2 enzyme (Homo sapiens (Human), UniProt O43353)
Assay: RIPK2 inhibition assay, TR-FRET LanthaScreen Tracer 199 screening assay
Format: binding
Settings: 5 nM RIPK2 enzyme, Tracer 199 at 50 nM, Eu-anti-His Antibody at 2 nM, 1 hour incubation
Protocol: All data was collected using a standard TR-FRET screening assay: LanthaScreen Tracer 199 at 50 nM, Eu-anti-His Antibody at 2 nM, 5 nM RIPK2 enzyme, and 1× Kinase Reaction Buffer. There was a 1 hour incubation prior to read. TR-FRET signal of the interaction (340Ex/665Em/615Em) was read at room temperature with standard setting. Background was subtracted of wells containing no enzyme. Percent inhibition was based on uninhibited controls log (inhibitor) vs. response. Variable slope equation was used with no constraints: Log Y=Bottom+(Top−Bottom)/(1+10^((Log IC50−X)*Hill Slope)).
The compound numbers correspond to the compound numbers above.

RIPK2 enzyme, sequence (O43353 whole entry): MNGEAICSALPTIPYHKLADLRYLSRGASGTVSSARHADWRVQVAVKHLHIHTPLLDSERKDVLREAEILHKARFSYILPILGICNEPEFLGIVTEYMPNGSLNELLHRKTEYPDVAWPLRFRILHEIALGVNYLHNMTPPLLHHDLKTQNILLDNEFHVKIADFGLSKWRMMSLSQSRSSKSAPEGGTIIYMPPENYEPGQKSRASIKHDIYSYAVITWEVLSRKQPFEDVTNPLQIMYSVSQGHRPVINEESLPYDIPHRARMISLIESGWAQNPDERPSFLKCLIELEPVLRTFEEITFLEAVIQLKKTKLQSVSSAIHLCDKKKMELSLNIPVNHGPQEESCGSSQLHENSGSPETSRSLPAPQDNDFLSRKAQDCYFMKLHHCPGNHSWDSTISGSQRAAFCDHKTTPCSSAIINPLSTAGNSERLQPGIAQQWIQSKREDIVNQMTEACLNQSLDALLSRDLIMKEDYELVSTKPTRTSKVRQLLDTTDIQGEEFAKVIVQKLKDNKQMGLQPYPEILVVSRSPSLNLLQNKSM

SMILES	IC50 [nM]
CC1C(c2cc3c(Nc4ccc5scnc5c4F)c(F)cnc3s2)CCCN1C (single isomer, unassigned) [Example 125d, N-(2-(1,2-dimethylpiperidin-3-yl)-5-fluorothieno[2,3-b]pyridin-4-yl)-4-fluorobenzo[d]thiazol-5-amine]	≥ 50
CC1NCCCC1c1cc2c(Nc3c(F)cc4scnc4c3F)c(F)cnc2s1 (single isomer, unassigned) [Example 126d, 4,6-difluoro-N-(5-fluoro-2-(2-methylpiperidin-3-yl)thieno[2,3-b]pyridin-4-yl)benzo[d]thiazol-5-amine]	10 to 20
CCN1CCC(c2cc3c(Nc4c(F)cc5scnc5c4F)ccnc3s2)C12CCOCC2 (stereo not drawn) [Example 104, N-(2-(1-ethyl-8-oxa-1-azaspiro[4.5]decan-4-yl)thieno[2,3-b]pyridin-4-yl)-4,6-difluorobenzo[d]thiazol-5-amine]	≥ 50
CC1C(c2cc3c(Nc4c(F)cc5scnc5c4F)c(F)cnc3s2)CCCN1C (stereo not drawn) [Example 127b]	≤ 10
CC1NCCCC1c1cc2c(Nc3ccc4scnc4c3)ccnc2s1 (stereo not drawn) [Example 3, N-(2-(2-methylpiperidin-3-yl)thieno[2,3-b]pyridin-4-yl)benzo[d]thiazol-5-amine]	≤ 10
C[C@@H]1NCCC[C@H]1c1cc2c(Nc3ccc4scnc4c3F)ccnc2s1 [Example 57a, 4-fluoro-N-(2-((2S,3R)-2-methylpiperidin-3-yl)thieno-[2,3-b]pyridin-4-yl)benzo[d]thiazol-5-amine]	10 to 20
CC(=O)N1CCC=C(c2cc3c(Nc4ccc5scnc5c4)ccnc3s2)CC1 [Example 107, 1-(4-(4-(benzo[d]thiazol-5-ylamino)thieno[2,3-b]pyridin-2-yl)-2,3,6,7-tetrahydro-1H-azepin-1-yl)ethan-1-one]	≤ 10
CC1C(c2cc3c(Nc4cc5ncsc5cc4F)c(F)cnc3s2)CCCN1C (single isomer, unassigned) [Example 123d, N-(2-(1,2-dimethylpiperidin-3-yl)-5-fluorothieno[2,3-b]pyridin-4-yl)-6-fluorobenzo[d]thiazol-5-amine]	20 to 50
CC1C(c2cc3c(Nc4c(F)cc5scnc5c4F)c(F)cnc3s2)CCCN1C (single isomer, unassigned) [Example 127d]	10 to 20
C[C@@H]1C(c2cc3c(Nc4c(F)cc5scnc5c4F)ccnc3s2)=CCCN1C [Example 69, (R)—N-(2-(1,2-dimethyl-1,2,5,6-tetrahydropyridin-3-yl)thieno[2,3-b]pyridin-4-yl)-4,6-difluorobenzo[d]thiazol-5-amine]	≤ 10
CC1C(c2cc3c(Nc4ccc5scnc5c4F)c(F)cnc3s2)CCCN1C (single isomer, unassigned) [Example 125a, N-(2-(1,2-dimethylpiperidin-3-yl)-5-fluorothieno[2,3-b]pyridin-4-yl)-4-fluorobenzo[d]thiazol-5-amine]	≥ 50
CCN1CCC(c2cc3c(Nc4cc5ncsc5cc4F)ccnc3s2)C12CCOCC2 (stereo not drawn) [Example 86, N-(2-(1-ethyl-8-oxa-1-azaspiro[4.5]decan-4-yl)thieno[2,3-b]pyridin-4-yl)-6-fluorobenzo[d]thiazol-5-amine]	≥ 50
C[C@H]1[C@@H](c2cc3c(Nc4ccc5scnc5c4)ccnc3s2)CCCN1C [Example 4d, N-(2-(1,2-dimethylpiperidin-3-yl)thieno[2,3-b]pyridin-4-yl)benzo[d]thiazol-5-amine]	≤ 10
CC1NCCCC1c1cc2c(Nc3ccc4scnc4c3)c(F)cnc2s1 (single isomer, unassigned) [Example 119b, N-(5-fluoro-2-(2-methylpiperidin-3-yl)thieno[2,3-b]pyridin-4-yl)benzo[d]thiazol-5-amine]	≤ 10
C[C@H]1NCCC[C@H]1c1cc2c(Nc3cc4ncsc4cc3F)ccnc2s1 [Example 50b, 6-fluoro-N-(2-((2R)-2-methylpiperidin-3-yl)thieno[2,3-b]pyridin-4-yl)benzo[d]thiazol-5-amine]	≤ 10
CC1C(c2cc3c(Nc4cc5ncsc5cc4F)c(F)cnc3s2)CCCN1C (stereo not drawn) [Example 123a, N-(2-(1,2-dimethylpiperidin-3-yl)-5-fluorothieno[2,3-b]pyridin-4-yl)-6-fluorobenzo[d]thiazol-5-amine]	≥ 50
CCOCCN1CCCC(c2cc3c(Nc4ccc5scnc5c4)ccnc3s2)C1C (stereo not drawn) [Example 19, N-(2-(1-(2-ethoxyethyl)-2-methylpiperidin-3-yl)thieno[2,3-b]pyridin-4-yl)benzo[d]thiazol-5-amine]	10 to 20
CCN1CCC(c2cc3c(Nc4c(F)cc5scnc5c4F)ccnc3s2)C12CCOC2 (stereo not drawn) [Example 101, N-(2-(1-ethyl-7-oxa-1-azaspiro[4.4]nonan-4-yl)thieno[2,3-b]pyridin-4-yl)-4,6-difluorobenzo[d]thiazol-5-amine]	20 to 50

SMILES	IC50 [nM]
CCN1CCC=C(c2cc3c(Nc4cc5ncsc5cc4F)ccnc3s2)[C@H]1C [Example 52a, N-(2-(1-ethyl-2-methyl-1,2,5,6-tetrahydropyridin-3-yl)thieno[2,3-b]pyridin-4-yl)-6-fluorobenzo[d]thiazol-5-amine]	10 to 20
Fc1cc2scnc2c(F)c1Nc1ccnc2sc(C3CCNC34CCOCC4)cc12 (stereo not drawn) [Example 102, N-(2-(8-oxa-1-azaspiro[4.5]decan-4-yl)thieno[2,3-b]pyridin-4-yl)-4,6-difluorobenzo[d]thiazol-5-amine]	10 to 20
CC(C)N1CCCC(c2cc3c(Nc4ccc5scnc5c4)ccnc3s2)C1C (stereo not drawn) [Example 8, N-(2-(1-isopropyl-2-methylpiperidin-3-yl)thieno[2,3-b]pyridin-4-yl)benzo[d]thiazol-5-amine]	≤ 10
CC1(C)C(c2cc3c(Nc4cc5ncsc5cc4F)ccnc3s2)CCN1CCO (stereo not drawn) [Example 80, 2-(3-(4-((6-fluorobenzo[d]thiazol-5-yl)amino)thieno[2,3-b]pyridin-2-yl)-2,2-dimethyl-pyrrolidin-1-yl)ethan-1-ol]	20 to 50
C[C@H]1[C@H](c2cc3c(Nc4c(F)cc5scnc5c4F)ccnc3s2)CCCN1C [Example 71a, N-(2-((2S,3R)-1,2-dimethylpiperidin-3-yl)thieno[2,3-b]pyridin-4-yl)-4,6-difluorobenzo[d]thiazol-5-amine]	≤ 10
CC1C(c2cc3c(Nc4ccc5scnc5c4)c(F)cnc3s2)CCCN1C (single isomer, unassigned) [Example 120a, N-(2-(1,2-dimethylpiperidin-3-yl)-5-fluorothieno[2,3-b]pyridin-4-yl)benzo[d]-thiazol-5-amine]	20 to 50
CCC1C(c2cc3c(Nc4ccc5scnc5c4)ccnc3s2)CCCN1CC (stereo not drawn) [Example 24, N-(2-(1,2-diethylpiperidin-3-yl)thieno[2,3-b]pyridin-4-yl)benzo[d]thiazol-5-amine]	10 to 20
CC1(C)NCCC1c1cc2c(Nc3cc4ncsc4cc3F)ccnc2s1 (stereo not drawn) [Example 78a, N-(2-(2,2-dimethylpyrrolidin-3-yl)thieno[2,3-b]pyridin-4-yl)-6-fluorobenzo[d]thiazol-5-amine]	≤ 10
C[C@@H]1[C@H](c2cc3c(Nc4c(F)cc5scnc5c4F)ccnc3s2)CCCN1C [Example 70b, N-(2-((2R,3R)-1,2-dimethylpiperidin-3-yl)thieno[2,3-b]pyridin-4-yl)-4,6-difluorobenzo[d]-thiazol-5-amine]	≤ 10
CC(=O)N1CCCC(c2cc3c(Nc4ccc5scnc5c4)ccnc3s2)C1C (stereo not drawn) [Example 10, 1-(3-(4-(benzo[d]thiazol-5-ylamino)thieno[2,3-b]pyridin-2-yl)-2-methylpiperidin-1-yl)ethan-1-one]	≤ 10
CC(C)N1CCC=C(c2cc3c(Nc4ccc5scnc5c4)ccnc3s2)C1C (stereo not drawn) [Example 7, N-(2-(1-isopropyl-2-methyl-1,2,5,6-tetrahydropyridin-3-yl)thieno[2,3-b]pyridin-4-yl)benzo[d]thiazol-5-amine]	≤ 10
CN1CCCC(c2cc3c(Nc4ccc5scnc5c4)ccnc3s2)CC1 (stereo not drawn) [Example 109, N-(2-(1-methylazepan-4-yl)thieno[2,3-b]pyridin-4-yl)benzo[d]thiazol-5-amine]	≤ 10
CCN1CCC(c2cc3c(Nc4cc5ncsc5cc4F)ccnc3s2)C1C (stereo not drawn) [Example 76, N-(2-(1-ethyl-2-methylpyrrolidin-3-yl)thieno[2,3-b]pyridin-4-yl)-6-fluorobenzo[d]thiazol-5-amine]	10 to 20
CN1CC=C(c2cc3c(Nc4ccc5scnc5c4)ccnc3s2)C12CCOC2 (stereo not drawn) [Example 41, N-(2-(1-methyl-7-oxa-1-azaspiro[4.4]non-3-en-4-yl)thieno[2,3-b]pyridin-4-yl)benzo[d]thiazol-5-amine]	10 to 20
CN1CCC=C(c2cc3c(Nc4ccc5scnc5c4)ccnc3s2)CC1 [Example 106, N-(2-(1-methyl-2,3,6,7-tetrahydro-1H-azepin-4-yl)thieno[2,3-b]pyridin-4-yl)benzo[d]thiazol-5-amine]	≤ 10
CCN1CCC=C(c2cc3c(Nc4ccc5scnc5c4)ccnc3s2)C1C (stereo not drawn) [Example 5, N-(2-(1-ethyl-2-methyl-1,2,5,6-tetrahydropyridin-3-yl)thieno[2,3-b]pyridin-4-yl)benzo[d]thiazol-5-amine]	≤ 10
C[C@@H]1NCCC[C@@H]1c1cc2c(Nc3c(F)cc4scnc4c3F)ccnc2s1 [Example 68b, 4,6-difluoro-N-(2-((2S,3S)-2-methylpiperidin-3-yl)thieno[2,3-b]pyridin-4-yl)benzo[d]thiazol-5-amine]	≤ 10
CC1NCCCC1c1cc2c(Nc3ccc4scnc4c3F)c(F)cnc2s1 (single isomer, unassigned) [Example 124b, 4-fluoro-N-(5-fluoro-2-(2-methylpiperidin-3-yl)thieno[2,3-b]pyridin-4-yl)benzo[d]thiazol-5-amine]	≤ 10
